The source made the active and inactive calls. The rule behind the calls is not given here.
Assays:
Assay type in all cases: functional
Bacillus subtilis [1] = assay: Antibacterial activity against Bacillus subtilis MTCC 121 at 50 ug/ml by cup plate method; settings: read-out: DIZ
Staphylococcus aureus [2] = assay: Antibacterial activity against Staphylococcus aureus MTCC 96 at 300 ug/ml by cup-plate method; settings: read-out: DIZ
Pseudomonas aeruginosa [3] = assay: Antibacterial activity against Pseudomonas aeruginosa MTCC 2453 at 200 ug/ml by cup-plate method; settings: for zone of inhibition at 200 µg/mL: read-out: DIZ
Candida albicans [4] = assay: Antifungal activity against Candida albicans MTCC 227 at 200 ug/ml by cup-plate method; settings: for zone of inhibition at 200 µg/mL: read-out: DIZ
Escherichia coli [5] = assay: Antibacterial activity against Escherichia coli MTCC 739 at 50 ug/ml by cup-plate method; settings: for zone of inhibition at 50 µg/mL: read-out: DIZ
Escherichia coli [6] = assay: Antibacterial activity against Escherichia coli MTCC 739 at 300 ug/ml by cup-plate method; settings: for zone of inhibition at 300 µg/mL: read-out: DIZ
Staphylococcus aureus [7] = assay: Antibacterial activity against Staphylococcus aureus MTCC 96 at 50 ug/ml by cup-plate method; settings: read-out: DIZ
Staphylococcus aureus [8] = assay: Antibacterial activity against Staphylococcus aureus MTCC 96 at 200 ug/ml by cup-plate method; settings: read-out: DIZ
Candida albicans [9] = assay: Antifungal activity against Candida albicans MTCC 227 at 50 ug/ml by cup-plate method; settings: for zone of inhibition at 50 µg/mL: read-out: DIZ
Candida albicans [10] = assay: Antifungal activity against Candida albicans MTCC 227 at 100 ug/ml by cup-plate method; settings: for zone of inhibition at 100 µg/mL: read-out: DIZ
Bacillus subtilis [11] = assay: Antibacterial activity against Bacillus subtilis MTCC 121 at 200 ug/ml by cup plate method; settings: read-out: DIZ
Staphylococcus aureus [12] = assay: Antibacterial activity against Staphylococcus aureus MTCC 96 at 100 ug/ml by cup-plate method; settings: read-out: DIZ
Bacillus subtilis [13] = assay: Antibacterial activity against Bacillus subtilis MTCC 121 at 100 ug/ml by cup plate method; settings: read-out: DIZ
Candida albicans [14] = assay: Antifungal activity against Candida albicans MTCC 227 at 300 ug/ml by cup-plate method; settings: for zone of inhibition at 300 µg/mL: read-out: DIZ
Bacillus subtilis [15] = assay: Antibacterial activity against Bacillus subtilis MTCC 121 at 300 ug/ml by cup plate method; settings: read-out: DIZ
Escherichia coli [16] = assay: Antibacterial activity against Escherichia coli MTCC 739 at 200 ug/ml by cup-plate method; settings: for zone of inhibition at 200 µg/mL: read-out: DIZ
Escherichia coli [17] = assay: Antibacterial activity against Escherichia coli MTCC 739 at 100 ug/ml by cup-plate method; settings: for zone of inhibition at 100 µg/mL: read-out: DIZ
Pseudomonas aeruginosa [18] = assay: Antibacterial activity against Pseudomonas aeruginosa MTCC 2453 at 300 ug/ml by cup-plate method; settings: for zone of inhibition at 300 µg/mL: read-out: DIZ
Pseudomonas aeruginosa [19] = assay: Antibacterial activity against Pseudomonas aeruginosa MTCC 2453 at 50 ug/ml by cup-plate method; settings: for zone of inhibition at 50 µg/mL: read-out: DIZ
Pseudomonas aeruginosa [20] = assay: Antibacterial activity against Pseudomonas aeruginosa MTCC 2453 at 100 ug/ml by cup-plate method; settings: for zone of inhibition at 100 µg/mL: read-out: DIZ

Compound	zone of inhibition at 50 µg/mL (Bacillus subtilis [1]) [mm]	zone of inhibition at 300 µg/mL (Staphylococcus aureus [2]) [mm]	zone of inhibition at 200 µg/mL (Pseudomonas aeruginosa [3]) [mm]	zone of inhibition at 50 µg/mL (Escherichia coli [5]) [mm]	zone of inhibition at 300 µg/mL (Escherichia coli [6]) [mm]	zone of inhibition at 50 µg/mL (Staphylococcus aureus [7]) [mm]	zone of inhibition at 200 µg/mL (Staphylococcus aureus [8]) [mm]	zone of inhibition at 200 µg/mL (Bacillus subtilis [11]) [mm]	zone of inhibition at 100 µg/mL (Staphylococcus aureus [12]) [mm]	zone of inhibition at 100 µg/mL (Bacillus subtilis [13]) [mm]	zone of inhibition at 300 µg/mL (Bacillus subtilis [15]) [mm]	zone of inhibition at 200 µg/mL (Escherichia coli [16]) [mm]	zone of inhibition at 100 µg/mL (Escherichia coli [17]) [mm]	zone of inhibition at 300 µg/mL (Pseudomonas aeruginosa [18]) [mm]	zone of inhibition at 50 µg/mL (Pseudomonas aeruginosa [19]) [mm]	zone of inhibition at 100 µg/mL (Pseudomonas aeruginosa [20]) [mm]	diameter of the inhibition zone (DIZ) (Candida albicans [4])	diameter of the inhibition zone (DIZ) (Candida albicans [9])	diameter of the inhibition zone (DIZ) (Candida albicans [10])	diameter of the inhibition zone (DIZ) (Candida albicans [14])	further results
O=C1N/C(=N\c2ccccc2[N+](=O)[O-])S/C1=C\c1ccccc1	8	15	8	7	12	10	12	11	11	10	13	10	8	10	6	6					zone of inhibition at 200 µg/mL (Candida albicans [4]): 13 mm; zone of inhibition at 50 µg/mL (Candida albicans [9]): 10 mm; zone of inhibition at 100 µg/mL (Candida albicans [10]): 11 mm; zone of inhibition at 300 µg/mL (Candida albicans [14]): 18 mm
COc1cc(/C=C2\S/C(=N/c3ccccc3[N+](=O)[O-])NC2=O)ccc1O	8	8				7	8	10	8	8	12						inactive	inactive	inactive	inactive	diameter of the inhibition zone (DIZ) (Pseudomonas aeruginosa [3]): inactive; diameter of the inhibition zone (DIZ) (Escherichia coli [5]): inactive; diameter of the inhibition zone (DIZ) (Escherichia coli [6]): inactive; diameter of the inhibition zone (DIZ) (Escherichia coli [16]): inactive; diameter of the inhibition zone (DIZ) (Escherichia coli [17]): inactive; diameter of the inhibition zone (DIZ) (Pseudomonas aeruginosa [18]): inactive; diameter of the inhibition zone (DIZ) (Pseudomonas aeruginosa [19]): inactive; diameter of the inhibition zone (DIZ) (Pseudomonas aeruginosa [20]): inactive
O=C1N/C(=N\c2ccc([N+](=O)[O-])cc2)S/C1=C\c1ccccc1Cl	13	19	16	13	16	15	17	15	16	14	17	15	14	17	13	14	inactive	inactive	inactive	inactive	
O=C1N/C(=N\c2ccccc2[N+](=O)[O-])S/C1=C\c1ccc(O)cc1	10	11				10	10	10	10	10	11						inactive	inactive	inactive	inactive	diameter of the inhibition zone (DIZ) (Pseudomonas aeruginosa [3]): inactive; diameter of the inhibition zone (DIZ) (Escherichia coli [5]): inactive; diameter of the inhibition zone (DIZ) (Escherichia coli [6]): inactive; diameter of the inhibition zone (DIZ) (Escherichia coli [16]): inactive; diameter of the inhibition zone (DIZ) (Escherichia coli [17]): inactive; diameter of the inhibition zone (DIZ) (Pseudomonas aeruginosa [18]): inactive; diameter of the inhibition zone (DIZ) (Pseudomonas aeruginosa [19]): inactive; diameter of the inhibition zone (DIZ) (Pseudomonas aeruginosa [20]): inactive
O=C1N/C(=N\c2ccccc2[N+](=O)[O-])S/C1=C\c1ccccc1Cl	11	15	12	9	12	11	14	15	12	13	18	10	10	15	8	10					zone of inhibition at 200 µg/mL (Candida albicans [4]): 18 mm; zone of inhibition at 50 µg/mL (Candida albicans [9]): 10 mm; zone of inhibition at 100 µg/mL (Candida albicans [10]): 16 mm; zone of inhibition at 300 µg/mL (Candida albicans [14]): 19 mm
O=C1N/C(=N\c2ccc([N+](=O)[O-])cc2)S/C1=C\c1ccc(O)cc1	11	15	11	11	15	11	13	14	12	12	15	13	12	12	10	11	inactive	inactive	inactive	inactive	
OC(Cn1cncn1)(Cn1cncn1)c1ccc(F)cc1F [FLUCONAZOLE]																					zone of inhibition at 100 µg/mL (Candida albicans [10]): 35 mm
O=C(O)c1cn(C2CC2)c2cc(N3CCNCC3)c(F)cc2c1=O [CIPROFLOXACIN]									19	22			28			18			inactive		
O=C1N/C(=N\c2ccc([N+](=O)[O-])cc2)S/C1=C\c1ccccc1[N+](=O)[O-]	11	17	12	11	12	11	16	13	15	12	15	12	11	12	10	11	inactive	inactive	inactive	inactive	
O=C1N/C(=N\c2ccccc2[N+](=O)[O-])S/C1=C\c1ccc(Cl)cc1	13	18	17	10	11	14	16	15	15	14	16	11	11	18	14	15	inactive	inactive	inactive	inactive	

From ChEMBL document CHEMBL3044740, “Syntheses and evaluation of 2,5-disubstituted 4-thiazolidinone analogues as antimicrobial agents” (2012)
